Assay results taken from patent US20220274954A1, “SUBSTITUTED N-PHENYL-N-AMINOUARCILS AND SALTS THEREOF AND USE THEREOF AS HERBICIDAL AGENTS” (Bayer Aktiengesellschaft, priority 2019, published 2022).

Key:
Assay type in all cases: in vivo
Alopecurus myosuroides = assay: Pre-emergence herbicidal action; settings: application rate 80 g/ha
From the text: (§1) Seeds of monocotyledonous and dicotyledonous weed plants and crop plants were placed in plastic or organic planting pots and covered with soil. The compounds of the invention, formulated in the form of wettable powders (WP) or as emulsion concentrates (EC), were then applied to the surface of the covering soil as aqueous suspension or emulsion with addition of 0.5% additive at a water application rate equivalent to […] (converted). After the treatment, the pots were placed in a greenhouse and kept under good growth conditions for the test plants. After about 3 weeks, the effect of the preparations was scored visually in comparison with untreated controls as percentages. For example, 100% activity=the plants have died, 0% activity=like control plants.
(§2) Tables B1 to B11 below show the effects of selected compounds of the general formula (I) according to Tables I.1 to I.34 on various harmful plants and at an application rate corresponding to 80 g/ha and less, which were obtained by the experimental procedure mentioned above.

Polygonum convolvulus [1] = assay: Pre-emergence herbicidal action; settings: scored after about 3 weeks
From the text: as §1, §2

Veronica persica [2] = assay: Pre-emergence herbicidal action; settings: scored after about 3 weeks
From the text: as §1, §2

Viola tricolor [3] = assay: Pre-emergence herbicidal action; settings: scored after about 3 weeks
From the text: as §1, §2

Setaria viridis [4] = assay: Pre-emergence herbicidal action; settings: scored after about 3 weeks
From the text: as §1, §2

Abutilon theophrasti [5] = assay: Pre-emergence herbicidal action; settings: application rate 80 g/ha, scored after about 3 weeks
From the text: as §1, §2

Lolium rigidum = assay: Pre-emergence herbicidal action; settings: application rate 80 g/ha, scored after about 3 weeks
From the text: as §1, §2

Matricaria inodora [6] = assay: Pre-emergence herbicidal action; settings: scored after about 3 weeks
From the text: as §1, §2

Pharbitis purpurea [7] = assay: Pre-emergence herbicidal action; settings: application rate 80 g/ha, scored after about 3 weeks
From the text: as §1, §2

Digitaria sanguinalis [8] = assay: Pre-emergence herbicidal action; settings: scored after about 3 weeks
From the text: as §1, §2

Echinochloa crus-galli [9] = assay: Pre-emergence herbicidal action; settings: application rate 80 g/ha, scored after about 3 weeks
From the text: as §1, §2

Amaranthus retroflexus [10] = assay: Pre-emergence herbicidal action; settings: scored after about 3 weeks
From the text: as §1, §2

Triticum aestivum = assay: Pre-emergence crop plant compatibility; settings: application rate 20 g/ha
From the text: as §1
(§3) Here, the observed effects on selected crop plants are stated in comparison to the untreated controls (values in %).

Zea mays [11] = assay: Pre-emergence crop plant compatibility; settings: application rate 20 g/ha
From the text: as §1, §3

Brassica napus [12] = assay: Pre-emergence crop plant compatibility; settings: application rate 20 g/ha
From the text: as §1, §3

Glycine max = assay: Post-emergence crop plant compatibility
Outline: (§4)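 Greenhouse plants in sandy loam were sprayed at the one-leaf stage, 2–3 weeks after sowing, with WP or EC formulations in water plus 0.5% additive at […]. Damage was rated visually after about 3 weeks as % versus untreated controls, where 100% means dead plants and 0% means like controls.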

Zea mays [13] = assay: Post-emergence crop plant compatibility; settings: application rate 1.25 g/ha
Outline: as §4

Brassica napus [14] = assay: Post-emergence crop plant compatibility; settings: application rate 1.25 g/ha
Outline: as §4

Oryza sativa = assay: Post-emergence crop plant compatibility
Outline: as §4

Polygonum convolvulus [15] = assay: Post-emergence herbicidal action; settings: Fallopia convolvulus, 504 h, application rate 20 g/ha, read-out: Polygonum convolvulus (efficacy in %)
Outline: (§5)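 Plants grown from seed in sandy loam in the greenhouse were sprayed at the one-leaf stage, 2 to 3 weeks after sowing, with WP or EC formulations in water plus 0.5% additive at 20 g/ha or less. Activity was rated visually after about 3 weeks against untreated controls (100% = plants died, 0% = like control).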

Veronica persica [16] = assay: Post-emergence herbicidal action; settings: Veronica persica, 504 h, read-out: Veronica persica (efficacy in %)
Outline: as §5

Viola tricolor [17] = assay: Post-emergence herbicidal action; settings: Viola tricolor, 504 h, read-out: Viola tricolor (efficacy in %)
Outline: as §5

Setaria viridis [18] = assay: Post-emergence herbicidal action; settings: 504 h, read-out: Setaria viridis (efficacy in %)
Outline: as §5

Stellaria media = assay: Post-emergence herbicidal action; settings: application rate 20 g/ha
Outline: as §5

Abutilon theophrasti [19] = assay: Post-emergence herbicidal action; settings: Abutilon theophrasti, 504 h, read-out: Abutilon theophrasti (efficacy in %)
Outline: as §5

Matricaria inodora [20] = assay: Post-emergence herbicidal action; settings: Tripleurospermum inodorum, 504 h, read-out: Matricaria inodora (efficacy in %)
Outline: as §5

Pharbitis purpurea [21] = assay: Post-emergence herbicidal action; settings: Ipomoea purpurea, 504 h, application rate 5 g/ha, read-out: Pharbitis purpurea (efficacy in %)
Outline: as §5

Digitaria sanguinalis [22] = assay: Post-emergence herbicidal action; settings: 504 h, application rate 20 g/ha, read-out: Digitaria sanguinalis (efficacy in %)
Outline: as §5

Echinochloa crus-galli [23] = assay: Post-emergence herbicidal action; settings: Echinochloa crus-galli, 504 h, read-out: Echinochloa crus-galli (efficacy in %)
Outline: as §5

Amaranthus retroflexus [24] = assay: Post-emergence herbicidal action; settings: Amaranthus retroflexus, 504 h, read-out: Amaranthus retroflexus (efficacy in %)
Outline: as §5

Which “Alopecurus myosuroides (efficacy in %)” value (Alopecurus myosuroides) does the source give for `CCOC(=O)COc1ncccc1Sc1cc(-n2c(=O)cc(C(F)(F)F)n(N)c2=O)c(F)cc1Cl` [I.1-442, Ethyl {[3-({5-[3-amino-2,6-dioxo-4-(trifluoromethyl)-3,6-dihydropyrimidin-1(2H)-yl]-2-chloro-4-fluorophenyl}sulfanyl)pyridin-2-yl]oxy}acetate] here?
The value was 90%.

And the “Polygonum convolvulus (efficacy in %)” value (Polygonum convolvulus [1]; application rate 20 g/ha)?
The value was 90%.

What about the “Polygonum convolvulus (efficacy in %)” value (Polygonum convolvulus [1]; application rate 80 g/ha) of the same compound?
Its value is 100%.

What about the “Veronica persica (efficacy in %)” value (Veronica persica [2]; application rate 20 g/ha) of the same compound?
Its value is 80%.

And the “Veronica persica (efficacy in %)” value (Veronica persica [2]; application rate 80 g/ha)?
Its value is 100%.

What about the “Viola tricolor (efficacy in %)” value (Viola tricolor [3]; application rate 20 g/ha) of the same compound?
The value was 100%.

And the “Viola tricolor (efficacy in %)” value (Viola tricolor [3]; application rate 80 g/ha)?
Its value is 100%.

What about the “Setaria viridis (efficacy in %)” value (Setaria viridis [4]; application rate 20 g/ha) of the same compound?
Its value is 90%.

And the “Setaria viridis (efficacy in %)” value (Setaria viridis [4]; application rate 80 g/ha)?
Its value is 100%.

What about the “Abutilon theophrasti (efficacy in %)” value (Abutilon theophrasti [5]) of the same compound?
The value was 100%.

And the “Lolium rigidum (efficacy in %)” value (Lolium rigidum)?
Its value is 100%.

And the “Matricaria inodora (efficacy in %)” value (Matricaria inodora [6]; application rate 20 g/ha)?
Its value is 100%.

What about the “Matricaria inodora (efficacy in %)” value (Matricaria inodora [6]; application rate 80 g/ha) of the same compound?
The value was 100%.

And the “Pharbitis purpurea (efficacy in %)” value (Pharbitis purpurea [7])?
Its value is 100%.

And the “Digitaria sanguinalis (efficacy in %)” value (Digitaria sanguinalis [8]; application rate 20 g/ha)?
The value was 100%.

What about the “Digitaria sanguinalis (efficacy in %)” value (Digitaria sanguinalis [8]; application rate 80 g/ha) of the same compound?
The value was 100%.

And the “Echinochloa crus-galli (efficacy in %)” value (Echinochloa crus-galli [9])?
Its value is 100%.

What about the “Amaranthus retroflexus (efficacy in %)” value (Amaranthus retroflexus [10]; application rate 20 g/ha) of the same compound?
Its value is 100%.

What about the “Amaranthus retroflexus (efficacy in %)” value (Amaranthus retroflexus [10]; application rate 80 g/ha) of the same compound?
Its value is 100%.

And the “Triticum aestivum (efficacy in %)” value (Triticum aestivum)?
Its value is 10%.

What about the “Zea mays (efficacy in %)” value (Zea mays [11]) of the same compound?
Its value is 0%.

And the “Brassica napus (efficacy in %)” value (Brassica napus [12])?
The value was 0%.

And the “Glycine max (efficacy in %)” value (Glycine max; application rate 1.25 g/ha)?
Its value is 10%.

What about the “Glycine max (efficacy in %)” value (Glycine max; application rate 5 g/ha) of the same compound?
Its value is 20%.

What about the “Zea mays (efficacy in %)” value (Zea mays [13]) of the same compound?
Its value is 20%.

And the “Brassica napus (efficacy in %)” value (Brassica napus [14])?
The value was 10%.

What about the “Oryza sativa (efficacy in %)” value (Oryza sativa; application rate 1.25 g/ha) of the same compound?
The value was 10%.

What about the “Oryza sativa (efficacy in %)” value (Oryza sativa; application rate 5 g/ha) of the same compound?
The value was 20%.

What about the pest or weed control at 20 g/ha (Polygonum convolvulus [15]) of the same compound?
The pest or weed control at 20 g/ha was 100%.

What about the pest or weed control at 5 g/ha (Veronica persica [16]; application rate 5 g/ha) of the same compound?
The pest or weed control at 5 g/ha was 100%.

What about the pest or weed control at 20 g/ha (Veronica persica [16]; application rate 20 g/ha) of the same compound?
The pest or weed control at 20 g/ha was 100%.

And the pest or weed control at 5 g/ha (Viola tricolor [17]; application rate 5 g/ha)?
Its pest or weed control at 5 g/ha is 100%.

What about the pest or weed control at 20 g/ha (Viola tricolor [17]; application rate 20 g/ha) of the same compound?
Its pest or weed control at 20 g/ha is 100%.

What about the pest or weed control at 5 g/ha (Setaria viridis [18]; application rate 5 g/ha) of the same compound?
Its pest or weed control at 5 g/ha is 100%.

What about the pest or weed control at 20 g/ha (Setaria viridis [18]; application rate 20 g/ha) of the same compound?
The pest or weed control at 20 g/ha was 100%.

And the “Stellaria media (efficacy in %)” value (Stellaria media)?
The value was 100%.

What about the pest or weed control at 5 g/ha (Abutilon theophrasti [19]; application rate 5 g/ha) of the same compound?
Its pest or weed control at 5 g/ha is 100%.

What about the pest or weed control at 20 g/ha (Abutilon theophrasti [19]; application rate 20 g/ha) of the same compound?
The pest or weed control at 20 g/ha was 100%.

And the pest or weed control at 5 g/ha (Matricaria inodora [20]; application rate 5 g/ha)?
Its pest or weed control at 5 g/ha is 90%.

What about the pest or weed control at 20 g/ha (Matricaria inodora [20]; application rate 20 g/ha) of the same compound?
Its pest or weed control at 20 g/ha is 100%.

And the pest or weed control at 5 g/ha (Pharbitis purpurea [21])?
The pest or weed control at 5 g/ha was 100%.

What about the pest or weed control at 20 g/ha (Digitaria sanguinalis [22]) of the same compound?
Its pest or weed control at 20 g/ha is 100%.

And the pest or weed control at 5 g/ha (Echinochloa crus-galli [23]; application rate 5 g/ha)?
The pest or weed control at 5 g/ha was 100%.

What about the pest or weed control at 20 g/ha (Echinochloa crus-galli [23]; application rate 20 g/ha) of the same compound?
Its pest or weed control at 20 g/ha is 100%.

And the pest or weed control at 5 g/ha (Amaranthus retroflexus [24]; application rate 5 g/ha)?
Its pest or weed control at 5 g/ha is 100%.

What about the pest or weed control at 20 g/ha (Amaranthus retroflexus [24]; application rate 20 g/ha) of the same compound?
The pest or weed control at 20 g/ha was 100%.
